Values of other authors in patent publication US11337939B2 (PULMONEM INC., priority 2020, dated 2022).

Experiments:
airway inflammation = conditions: ferret
[1] = test system: human bronchial epithelial cells; conditions: stimulated with lipopolysaccharide

- absorbed from the gastrointestinal tract (from the gastrointestinal tract): 70%-80%
- time to peak serum concentration (serum): 2 to 6 h
Structure (SMILES): Nc1ccc(S(=O)(=O)c2ccc(N)cc2)cc1 [Dapsone, 4,4′-diaminodiphenyl sulfone]
- airway inflammation (airway inflammation): resolves airway inflammation
- IL-8 secretion [1]: inhibits IL-8 secretion
